Measurements from publication PMC12473165, “Theranostic Potential of a New ^64Cu-Labeled NOTA-R954 Peptide Conjugate for Kinin B1R Expressing Prostate Cancer” (Pharmaceutics, 2025).
Several values for one entry are separate records, joined by “and”; a condition that tells them apart may be missing. Equal values may be shown once. Square brackets hold non-standard residues; d marks the D form. Peptide text beside a SMILES is read from it. * marks the point of attachment. NOTA = O=C(O)CN1CCN(CC(=O)O)CCN(CC(=O)*)CC1; Oic = O=C(O)[C@@H]1C[C@@H]2CCCC[C@@H]2N1; d2Nal = N[C@H](Cc1ccc2ccccc2c1)C(=O)O; αMeF = C[C@](N)(Cc1ccccc1)C(=O)O; Orn = NCCC[C@H](N)C(=O)O; βAla = NCCC(=O)O

Columns and labels:
hB1R [1] = target: T1, hB1R (Homo sapiens, UniProt P46663); assay: Radioligand competition binding on HEK293 cells stably expressing hB1R; set-up: expressed in transfected cells; host or cells: QBI-HEK293A (lentiviral transduction, puromycin selection); settings: hB1R-stably expressing HEK293 cells, means of two independent experiments
T1 sequence (P46663 1-353): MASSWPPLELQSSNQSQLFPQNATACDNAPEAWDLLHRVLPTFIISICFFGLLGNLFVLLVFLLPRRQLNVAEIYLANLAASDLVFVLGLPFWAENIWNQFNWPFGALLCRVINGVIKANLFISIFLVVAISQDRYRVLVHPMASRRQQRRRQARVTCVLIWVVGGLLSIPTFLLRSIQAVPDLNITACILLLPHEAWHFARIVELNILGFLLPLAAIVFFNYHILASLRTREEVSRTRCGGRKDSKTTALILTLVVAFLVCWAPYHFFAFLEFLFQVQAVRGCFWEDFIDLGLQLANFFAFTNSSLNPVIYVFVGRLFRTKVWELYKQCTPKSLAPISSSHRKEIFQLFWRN

hB1R [2] = target: T1, hB1R; assay: NFAT-eGFP reporter assay in CHO-hB1R-NFAT-eGFP cells; type: cell-based; set-up: expressed in transfected cells; host or cells: CHO (hB1R-expressing line, then transduced with NFAT-eGFP reporter); settings: means of two independent experiments; for IC50: hB1R-stably expressing CHO-NFAT cells, antagonist potency, read-out: CHO-NFAT IC50 (Table S1); for EC50: hB1R-stably expressing CHO-NFAT-eGFP cells, agonist potency, 16 h stimulation, read-out: CHO-NFAT EC50 (Table S2)
Excerpt: The pLenti-6V5-NFAT-eGFP vector was generated from the pSIRV-NFAT-eGFP vector (a gift from Peter Steinberger, Addgene plasmid #118031). Briefly, NFAT-eGFP gene was PCR amplified using the following primers: 5′-[…]-3′ and 5′-[…]-3′). The amplified gene was then ligated into the ClaI and AgeI restriction sites of the pLenti-6V5 vector. Lentiviruses were produced using the pLenti-6V5-NFAT-eGFP vector in HEK293T cells and used to transduce a hB1R-expressing CHO cell line, followed by selection with 10 µg/mL blasticidin. […] Clones were grown in 4000 nanowells/well in 24-well plates and re-plated into 96-well plates after initial expansion via the ALS CellCelector™ (Sartorius Corporation, Bohemia, NY, USA). After clonal expansion, individual cell lines were evaluated based on their ratio of stimulated fluorescence to basal expression to determine maximum sensitivity.
Fluorescence assays performed on CHO-hB1R-NFAT-eGFP cells. Target cells were plated at 10,000 cells/well in a 96-well microplate (opaque black wells with clear flat bottom, Thermo Scientific, Rockford, IL, USA) using RPMI 1640 medium with 10% fetal bovine serum (FBS). After 24 h, the medium was replaced by RPMI without FBS and phenol red. […] Fluorescence was measured using a TECAN M1000 (Tecan Group Ltd., Männedorf, Switzerland) multimode microplate reader with excitation at 488 nm and emission at 507 nm. Each data point represents a ratio of two values, divided by the average fluorescence of six control wells. […] Antagonist affinity (Kb) was estimated from functional inhibition curves using the Gaddum (Schild) equation assuming competitive antagonism at human B1R: Kb = [B]/(dose-ratio–1), where [B] is the antagonist concentration, and the dose ratio is EC50 + Compound/EC50.

[3] = mouse, in vivo, iv
Experimental: To perform ex vivo biodistribution studies, radiolabeled peptides (5–10 MBq; 100 μL) were administered to isoflurane-anaesthetized normal male Balb/c mice through caudal vein injection. Organs were collected 1 h and 4 h post-injections from CO2 inhalation-euthanized animals and were washed, weighted, and radioactivity measured in a gamma counter (Cobra II auto-gamma counter, Packard). The percentage of injected dose per gram of tissue (%ID/g) was then calculated, accounting for decay correction, using external ^64Cu standards. Biodistribution of the radiolabeled peptides was also performed in PCa tumor-bearing nude mice using micro-PET imaging performed on a 7.5 cm axial and 10 cm transaxial field of view LabPET8 small-animal scanner (Gamma Medica-IDEAS Inc., Northridge, CA, USA) in combination with X-ray computer tomography (CT) (MILabs U-CT system, Utrecht, The Netherlands). For this, radiolabeled peptides (6–9 MBq in 200 μL) were delivered by tail-vein injection to isoflurane-anaesthetized mice. PET scans composed of 30 min static acquisition were acquired at 1 h and 20 h after injection. […] To quantify the tumor uptake of the radiotracer, a volume of interest (VOI) was drawn around the center of the tumor. The uptake was determined as the means of the VOI voxels having intensity in the upper quartile.

PC3 xenografts = assay: Peptide receptor radionuclide therapy (PRRT) in PC3 xenograft-bearing mice; type: in vivo, mouse; settings: nude mice with s.c. PC3 xenografts, single IV dose 50 µg/kg; 65 MBq
Experimental: Male Nu/Nu nude mice (Crl:NU-Foxn1nu: 4–6 weeks old, Charles River Laboratories, Inc., Wilmington, MA, USA) were subcutaneously (s.c.) inoculated into one or both lower flanks with PCa cells. LNCap cells (10 x 10^6) and PC3 cells (2.5 × 10^6) were suspended in 0.2 mL of a 1:1 (v/v) mixture of antibiotic-free DMEM medium and Matrigel (#356234, Sigma-Aldrich) for injection. Within 10–21 days post-inoculation, solid palpable prostate tumors had developed, and the animals were used for biodistribution, PET imaging, and radiotherapy studies. […]
Therapeutic efficacies of agents were investigated in PC3 xenograft-bearing mice. […] Tumor growth was monitored with a digital vernier caliper using the following formula: length × width^2. The weight of the mice was monitored throughout the study. […] Tumor growth was normalized by calculating the ratio of the tumor volume at each time point to the initial tumor volume measured prior to treatment. […]. […]
Retrieved subcutaneous tumors (5 μm thick sections) were evaluated by H&E and semiquantitative IHC staining of B1R, Ki67 (proliferation), cleaved caspase 3 (apoptosis), CD34 (angiogenesis), and LYVE-1 (lymphangiogenesis). […] Positive Ki67 staining was determined by the nucleus count (Ki-67+ cells/total cells) in sampled fields. […]

[4] = binding affinity, read-out: HEK293 IC50 (Table S1)
[5] = binding affinity of agonists, read-out: HEK293 IC50 (Table S2)

CC[C@H](C)[C@H](NC(=O)[C@@H](Cc1ccc2ccccc2c1)NC(=O)[C@H](CO)NC(=O)[C@](C)(Cc1ccccc1)NC(=O)CNC(=O)[C@@H]1CCCN1C(=O)[C@@H]1C[C@@H]2CCCC[C@@H]2N1C(=O)[C@H](CCCNC(=N)N)NC(=O)[C@H](CCCN)NC(=O)CN1CCN(CC(=O)O)CCN(CC(=O)O)CC1)C(=O)O (natCu complex, metal not drawn) [MAB7090]
IC50 (hB1R [1]; [4]): 13 nM
IC50 (hB1R [2]): 9.8 nM and 10 nM

N=C(N)NCCC[C@H](NC(=O)[C@H](CCCCN)NC(=O)CCNC(=O)CN1CCN(CC(=O)O)CCN(CC(=O)O)CC1)C(=O)N1CCC[C@H]1C(=O)N1CCC[C@H]1C(=O)NCC(=O)N[C@@H](Cc1ccccc1)C(=O)N[C@@H](CO)C(=O)N1CCC[C@H]1C(=O)N[C@H](Cc1ccccc1)C(=O)O [MAB2047]
IC50 (hB1R [1]; [5]): 2.3 nM
EC50 (hB1R [2]): 2.2 nM

CC[C@H](C)[C@H](NC(=O)[C@@H](Cc1ccc2ccccc2c1)NC(=O)[C@H](CO)NC(=O)[C@](C)(Cc1ccccc1)NC(=O)CNC(=O)[C@@H]1CCCN1C(=O)C1CC2CCCCC2N1C(=O)[C@H](CCCNC(=N)N)NC(=O)[C@H](CCCN)NC(=O)CN1CCN(CC(=O)O)CCN(CC(=O)O)CC1)C(=O)O (stereo partly shown) [MAB7020]
IC50 (hB1R [1]; [4]): 5 nM
IC50 (hB1R [2]): 0.4 nM

CNCC(=O)N[C@@H](CCCCNC(=O)CN1CCN(CC(=O)O)CCN(CC(=O)O)CC1)C(=O)N[C@@H](CCCNC(=N)N)C(=O)N1CCC[C@H]1C(=O)N1CCC[C@H]1C(=O)NCC(=O)N[C@@H](Cc1ccccc1)C(=O)N[C@@H](CO)C(=O)N1CCC[C@H]1C(=O)N[C@H](Cc1ccccc1)C(=O)O [MAB8066]
IC50 (hB1R [1]; [5]): 40 nM
EC50 (hB1R [2]): 41 nM

CC[C@H](C)[C@H](NC(=O)[C@@H](Cc1ccc2ccccc2c1)NC(=O)[C@H](CO)NC(=O)[C@](C)(Cc1ccccc1)NC(=O)CNC(=O)[C@@H]1CCCN1C(=O)[C@@H]1C[C@@H]2CCCC[C@@H]2N1C(=O)[C@H](CCCNC(=N)N)NC(=O)[C@H](CCCN)NC(=O)CCNC(=O)CN1CCN(CC(=O)O)CCN(CC(=O)O)CC1)C(=O)O [^64Cu/NOTA-βAla-R954, metal not drawn] ({NOTA-βAla}-[Orn]R[Oic]PG[αMeF]S[d2Nal]I-OH)
clearance from the bloodstream [3]: rapid clearance
observable toxicity (body weight) (PC3 xenografts): did not induce any observable toxicity
